The text below walks through data of patent US20130274127A1, “GENE EXPRESSION MARKERS FOR PREDICTION OF RESPONSE TO PHOSPHOINOSITIDE 3-KINASE INHIBITORS” (GENOMIC HEALTH, INC., priority 2012, published 2013).

Each structure is given as a SMILES string.

Experiment [1] deals with MDA-MB-231 tumor cell line. The experiment in a line: siRNA knockdown and cell viability assay. It is filed as cell-based, human.
In another experiment the test system is OVCAR-4 tumor cell line. Description: siRNA knockdown and cell viability assay. It is filed as cell-based, human.

With `Cn1c(=O)n(-c2ccc(C(C)(C)C#N)cc2)c2c3cc(-c4cnc5ccccc5c4)ccc3ncc21` [NVP-BEZ235], the figures for the “Sensitivity to NVP-BEZ235 (cell viability) upon loss of OGT expression” value (in experiment [1] (OGT siRNA + 10 nM NVP-BEZ235); in the experiment with OVCAR-4 tumor cell line (OGT siRNA + 10 nM NVP-BEZ235)) were “increased sensitivity” and “no effect”, respectively. The “Sensitivity of cell line to NVP-BEZ235” value in experiment [1] (data not shown) is reported as “resistant”; in the experiment on OVCAR-4 tumor cell line (data not shown), “highly NVP-BEZ235-resistant”.
